Test results reported in patent publication US6784153B1, “Methods of homing molecules to lung using membrane dipeptidase” (The Burnham Institute, priority 1998, dated 2004).
Entries after “also recorded” stand apart in the source; their conditions may differ.

Tests used:
[1] = molecular target: T1, 55 kDa lung vascular surface protein (Mus musculus, UniProt P31428); assay: peptide affinity chromatography of in vivo biotinylated lung extract; type: binding; details: elution with GFE-1 peptide
T1 construct: from tissue; host or cells: Balb/c mouse lung, in vivo biotinylated, octylglucoside extract
T1 sequence (P31428 17-384): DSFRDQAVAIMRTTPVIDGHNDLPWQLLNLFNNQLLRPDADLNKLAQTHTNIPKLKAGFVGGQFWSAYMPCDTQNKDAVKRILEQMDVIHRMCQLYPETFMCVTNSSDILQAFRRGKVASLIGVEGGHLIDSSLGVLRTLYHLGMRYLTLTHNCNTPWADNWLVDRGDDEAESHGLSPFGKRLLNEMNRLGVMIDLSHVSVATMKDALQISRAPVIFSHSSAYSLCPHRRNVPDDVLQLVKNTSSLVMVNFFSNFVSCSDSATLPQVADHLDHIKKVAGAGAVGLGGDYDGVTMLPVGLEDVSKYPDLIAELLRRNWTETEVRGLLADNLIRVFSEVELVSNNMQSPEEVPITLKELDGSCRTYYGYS
Description: In vivo biotinylation of endothelial cell surface proteins was performed as previously described in De La Fuente et al., Am. J. Physiol. […] Briefly, Balb/c mice were anesthetized with Avertin and perfused slowly through the heart for 10 to 15 minutes with approximately 15 ml of PBS containing 0.5 mg/ml of sulfo-NHS-LC-biotin (Pierce; Rockford, Ill.). Well perfused lungs or control tissues such as brain were then collected and incubated on ice for 20 minutes. The tissues were then homogenized for preparation of extracts as described further below.
For preparation of extracts, mouse or rat lungs were first minced and then homogenized with a Brinkman homogenizer (Brinkman; Wesbury, N.Y.) in a minimal volume (2.5 ml/g of tissue) of cold PBS containing 100 mM N-octyl-β-D-glucopyranoside (Calbiochem; La Jolla, Calif.) with 1 mM phenylmethylsulfonyl fluoride (PMSF), 20 μg/ml aprotinin and 1 μg/ml leupeptin (PBS/octylglucoside). The homogenized tissue was incubated on ice for 2 hours, and then centrifuged at 12,000×g for 30 minutes to remove cell debris. The pooled supernatants were cleared of any debris prior to affinity chromatogaphy.
All steps were performed at 4° C. […] The matrix contained approximately 2 mg/ml of peptide. […] The extract was applied to the column, and the flow-through re-applied over a period of 90 minutes. The column was then washed with 20 volumes of column buffer. […]

lung primary cells = assay: phage binding assay on lung primary cells; set-up: species or system mice
Description: Phage binding to primary cells was performed as follows. Briefly, Balb/c mice (Harlan Sprague Dawley) were anesthetized with 0.017 ml/g of Avertin as described in Gardner et al., Lab. […] Under deep anesthesia, mice were perfused through the heart with 10 ml Dulbecco's modified Eagle's medium (DMEM; Irvine Scientific; Santa Ana, Calif.). The lungs, kidneys and brain were then collected, minced, placed in 2 ml of DMEM containing 0.5% BSA (Intergen; Purchase, N.Y.) and 0.5 μg/ml collagenase V (SIGMA) and incubated at 37° C. for 25 minutes. Following collagenase treatment, the tissue was forced through a […] pore cell strainer (Becton Dickinson; Franklin Lake, N.J.). The filtered cells were washed once with 10 ml DMEM supplemented with 10% serum.
For the binding reaction, 10^9 transducing units (TU) of phage were incubated with 5×10^6 cells in 1 ml DMEM supplemented with 10% serum. The binding was performed at 4° C. for 2 hours with gentle agitation. After the binding reaction, the cells were washed four times with 1 ml of DMEM supplemented with 10% serum at room temperature for 5 to 10 minutes each time. The cells were centrifuged, and the cell pellet resuspended in 100 μl of DMEM and transferred to a new tube. […] The bacteria were then diluted in 10 ml of LB culture media supplemented with 0.2 μg/ml tetracycline, and incubated for another 30 minutes at room temperature. Serial dilutions of the bacterial culture were plated on LB plates containing 40 μg/ml tetracycline. Plates were incubated at 37° C. overnight before the colonies were counted (transducing units, TU).

CGFECVRQCPERC [lung homing peptide]
binding of lung surface protein to peptide affinity column [1]: a 55 kDa biotinylated protein was selectively eluted; also recorded: specifically binds to a 55 kDa lung vascular surface protein
inhibition of GFE-1 phage binding to lung cells (lung primary cells; 150 μM peptide): ~70%
phage bound by primary lung cells relative to insertless fd-tet phage (lung primary cells; 10^9 TU phage, 5×10^6 cells, 4° C., 2 hours): about 60 fold
